Experiments:
[1] = cited from earlier work
[2] = male Fischer rats, doses equivalent to 60 mg/kg of 5-ASA via metal probe into stomach; for Recovery percentages of 5-ASA + N-acetyl-5-ASA in feces by HPLC: feces withdrawn at 2 hour intervals for 48 hours; for Recovery percentages of 5-ASA + N-acetyl-5-ASA in urine by HPLC: urine withdrawn at 2 hour intervals for 48 hours
Experimental: Particularly, male Fischer rats weighing about 200-250 g were used.
The rats were then placed in metabolic cages, from which feces and urine were withdrawn at 2 hour intervals for 48 hours.

SMILES | Stability at the gastric pH [1] | Recovery percentages of 5-ASA + N-acetyl-5-ASA in feces by HPLC [2] | Recovery percentages of 5-ASA + N-acetyl-5-ASA in urine by HPLC [2]
Nc1ccc(O)c(C(=O)O)c1 [Compound 5-ASA, 5-aminosalicylic acid] | not stable at the gastric pH | 05 ± 3% | 79 ± 3%
N[C@@H](CCC(=O)O)C(=O)Nc1ccc(O)c(C(=O)O)c1 [Compound 2, (N-L-glutamyl)-amino-2-salicylic acid] | – | 45 ± 4% | 34 ± 4%

From patent US5424292A (Depha Team s.r.l., priority 1990, dated 1995)
